30 compounds from US20090054454A1, “BENZOFURANYL- AND BENZOTHIENYL- PIPERAZINYL QUINOLINES AND METHODS OF THEIR USE” (priority 2007, published 2009) can be followed below.

The target of one data set is 5-HT transporter (Rattus norvegicus, UniProt P31652). Briefly: Rat Brain 3H-Paroxetine Binding Assay (RB 5HT Transporter). Particulars: read-out: RB-5HT Transporter % inhibition @ 1 μM concentration.
Another data set has as its target Human 5-HT Transporter (Homo sapiens, UniProt P31645). Briefly: Inhibition of 3H-5-HT Uptake by Cells Possessing the Human 5-HT Transporter (HC 5HT Transporter), Jar cells. Particulars: HC-5HTC Transporter Ki (nM), Jar cells treated with staurosporine.

Where a name gives a salt, the structure may show the parent alone.

Chain of Human 5-HT Transporter (P31645 whole entry): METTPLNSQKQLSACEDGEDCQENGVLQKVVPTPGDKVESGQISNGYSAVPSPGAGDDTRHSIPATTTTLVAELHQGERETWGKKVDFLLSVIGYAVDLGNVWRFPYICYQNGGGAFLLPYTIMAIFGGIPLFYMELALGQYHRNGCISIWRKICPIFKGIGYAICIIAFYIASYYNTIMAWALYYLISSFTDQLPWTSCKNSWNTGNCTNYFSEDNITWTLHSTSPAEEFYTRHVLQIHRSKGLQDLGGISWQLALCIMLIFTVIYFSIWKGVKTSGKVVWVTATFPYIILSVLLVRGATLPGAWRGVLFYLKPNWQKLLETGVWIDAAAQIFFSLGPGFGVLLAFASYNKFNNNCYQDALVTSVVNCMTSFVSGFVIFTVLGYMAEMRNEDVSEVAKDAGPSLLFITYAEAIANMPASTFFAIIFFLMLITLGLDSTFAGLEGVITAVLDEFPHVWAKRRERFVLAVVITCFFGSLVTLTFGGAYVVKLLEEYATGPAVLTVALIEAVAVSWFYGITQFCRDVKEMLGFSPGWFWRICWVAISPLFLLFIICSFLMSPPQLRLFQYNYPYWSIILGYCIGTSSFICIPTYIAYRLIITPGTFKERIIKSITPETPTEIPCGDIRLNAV
Chain of 5-HT transporter (P31652 whole entry): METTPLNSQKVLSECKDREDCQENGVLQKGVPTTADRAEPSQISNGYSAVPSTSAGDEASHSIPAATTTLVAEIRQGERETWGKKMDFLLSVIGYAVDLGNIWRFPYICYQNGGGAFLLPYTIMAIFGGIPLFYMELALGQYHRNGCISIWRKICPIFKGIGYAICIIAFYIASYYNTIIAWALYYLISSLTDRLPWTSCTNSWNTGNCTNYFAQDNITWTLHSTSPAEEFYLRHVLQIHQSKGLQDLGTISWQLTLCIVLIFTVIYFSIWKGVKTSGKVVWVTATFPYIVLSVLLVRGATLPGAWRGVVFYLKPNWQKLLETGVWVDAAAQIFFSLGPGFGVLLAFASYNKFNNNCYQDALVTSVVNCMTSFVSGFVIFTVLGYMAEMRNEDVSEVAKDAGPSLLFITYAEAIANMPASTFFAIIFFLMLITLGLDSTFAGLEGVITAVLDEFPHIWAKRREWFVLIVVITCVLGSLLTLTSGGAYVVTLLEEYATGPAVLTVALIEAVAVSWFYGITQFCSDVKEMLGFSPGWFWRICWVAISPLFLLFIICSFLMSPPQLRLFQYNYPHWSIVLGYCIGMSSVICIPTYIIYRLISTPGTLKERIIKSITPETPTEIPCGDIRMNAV

For `Fc1cc(N2CCN(CCc3coc4ccc(F)cc34)CC2)c2ncccc2c1` (as salt: HCl) [Compound 17, 8-{4-[2-(5-fluoro-1-benzofuran-3-yl)ethyl]-1-piperazinyl}-6-fluoro-quinoline], the melting point was determined as 55 °C.

As to `COc1cc(N2CCN(CCc3coc4c(OC)cccc34)CC2)c2ncccc2c1` (as salt: HCl) [Compound 19, 8-{4-[2-(7-methoxy-1-benzofuran-3-yl)ethyl]-1-piperazinyl}-6-methoxy-quinoline], the melting point was found to be 86 °C.

For the compound `COc1cccc2c(CCN3CCN(c4cc(Cl)cc5cccnc45)CC3)coc12` (as salt: HCl) [Compound 20, 8-{4-[2-(7-methoxy-1-benzofuran-3-yl)ethyl]-1-piperazinyl}-6-chloro-quinoline], the melting point was 248 °C.

Turning to `COc1cccc2c(C(C)CN3CCN(c4cccc5cccnc45)CC3)coc12` (centres unmarked) (as salt: HCl) [Compound 31, 8-{4-[2-(7-methoxy-1-benzofuran-3-yl)propyl]-1-piperazinyl}quinoline], the melting point worked out at 192 °C.

As to `COc1cccc2c(C(C)CN3CCN(c4cc(Cl)cc5cccnc45)CC3)coc12` (centres unmarked) (as salt: HCl) [Compound 33, 8-{4-[2-(7-methoxy-1-benzofuran-3-yl)propyl]-1-piperazinyl}-6-chloro-quinoline], the melting point was in the range of 55 to 58 °C.

As for `Clc1cc(N2CCN(CCc3coc4cc(Cl)ccc34)CC2)c2ncccc2c1` [Compound 7, 8-{4-[2-(6-chloro-1-benzofuran-3-yl)ethyl]-1-piperazinyl}-6-chloro-quinoline], the inhibition at 1 µM on 5-HT transporter worked out at 32%. The compound further came in with an inhibition constant Ki on Human 5-HT Transporter of 2150 nM.

For `COc1ccc2occ(CCN3CCN(c4cccc5cccnc45)CC3)c2c1` [Compound 21, 8-{4-[2-(5-methoxy-1-benzofuran-3-yl)ethyl]-1-piperazinyl}-quinoline], the melting point was 78 °C. Moreover, the Ki at Human 5-HT Transporter came to 43.6 nM.

As to `COc1ccc2occ(CCN3CCN(c4cc(Cl)cc5cccnc45)CC3)c2c1` [Compound 22, 8-{4-[2-(5-methoxy-1-benzofuran-3-yl)ethyl]-1-piperazinyl}-6-chloro-quinoline], the melting point worked out at 72 °C. In addition, the inhibition constant (Ki) at Human 5-HT Transporter amounted to 106 nM.

`Clc1cc(N2CCN([C@H]3CC[C@@H](c4csc5ccccc54)CC3)CC2)c2ncccc2c1` [Compound 41, 8-{4-[4-cis-(1-benzothien-3-yl)cyclohexyl]-1-piperazinyl}-6-chloroquinoline] registered a melting point of 164 to 165 °C. In addition, at Human 5-HT Transporter, the affinity corresponds to a Ki of 338 nM.

With `Clc1cc(N2CCN([C@H]3CC[C@H](c4csc5ccccc54)CC3)CC2)c2ncccc2c1` [Compound 42, 8-{4-[4-trans(1-benzothien-3-yl)cyclohexyl]-1-piperazinyl}-6-chloroquinoline], the melting point was 143 to 144 °C. Further, the inhibitory constant (Ki) on Human 5-HT Transporter was 184 nM.

Compound `Fc1cc(N2CCN([C@H]3CC[C@@H](c4csc5ccccc54)CC3)CC2)c2ncccc2c1` [Compound 43, 8-{4-[4-cis(1-benzothien-3-yl)cyclohexyl]-1-piperazinyl}-6-fluoroquinoline] yielded a melting point of 147 to 151 °C. Moreover, the affinity on Human 5-HT Transporter, expressed as Ki, was 1440 nM.

Compound `Fc1cc(N2CCN([C@H]3CC[C@H](c4csc5ccccc54)CC3)CC2)c2ncccc2c1` [Compound 44, 8-{4-[4-trans(1-benzothien-3-yl)cyclohexyl]-1-piperazinyl}-6-fluoroquinoline] came in with a melting point of 195 °C. On Human 5-HT Transporter, this compound displayed a Ki of 1620 nM.

`COc1cc(N2CCN([C@H]3CC[C@@H](c4csc5ccccc54)CC3)CC2)c2ncccc2c1` [Compound 45, 8-{4-[4-cis(1-benzothien-3-yl)cyclohexyl]-1-piperazinyl}-6-methoxyquinoline] gave a melting point of 148 to 150 °C. Further, on Human 5-HT Transporter, affinity was put at a Ki of 1080 nM.

With `COc1cc(N2CCN([C@H]3CC[C@H](c4csc5ccccc54)CC3)CC2)c2ncccc2c1` [Compound 46, 8-{4-[4-trans (1-benzothien-3-yl)cyclohexyl]-1-piperazinyl}-6-methoxyquinoline], the melting point was 166 to 168 °C. On Human 5-HT Transporter, this compound showed a Ki of 802 nM.

Consider `Fc1cc(N2CCN([C@H]3CC[C@@H](c4csc5ccc(F)cc54)CC3)CC2)c2ncccc2c1` [Compound 47, 6-fluoro-8-{4-[4-cis(5-fluoro-1-benzothien-3-yl)cyclohexyl]piperazin-1-yl}quinoline], for which, on 5-HT transporter, the inhibition at 1 µM is 25%. Besides, affinity at Human 5-HT Transporter was put at a Ki of 3490 nM.

Consider `Fc1cc(N2CCN([C@H]3CC[C@H](c4csc5ccc(F)cc54)CC3)CC2)c2ncccc2c1` [Compound 48, 6-fluoro-8-{4-[4-trans(5-fluoro-1-benzothien-3-yl)cyclohexyl]piperazin-1-yl}quinoline], for which the melting point is 143 to 144 °C. On Human 5-HT Transporter, the affinity corresponds to a Ki of 739 nM.

Consider `Fc1ccc2scc([C@H]3CC[C@@H](N4CCN(c5ccc(Cl)c6cccnc56)CC4)CC3)c2c1` [Compound 51, 5-chloro-8-{4-[4-cis(5-fluoro-1-benzothien-3-yl)cyclohexyl]piperazin-1-yl}quinoline], for which the melting point was in the range of 192 to 197 °C. On Human 5-HT Transporter, this compound displayed a Ki of 1150 nM.

Regarding `Fc1ccc(N2CCN([C@H]3CC[C@@H](c4coc5ccccc54)CC3)CC2)c2ncccc12` [Compound 53, 8-{4-[4-cis(1-benzofuran-3-yl)cyclohexyl]-1-piperazinyl}-5-fluoroquinoline], the melting point lay within 142 to 144 °C. The compound further had a Ki at Human 5-HT Transporter of 3910 nM.

On to `Fc1ccc(N2CCN([C@H]3CC[C@H](c4coc5ccccc54)CC3)CC2)c2ncccc12` [Compound 54, 8-{4-[4-trans(1-benzofuran-3-yl)cyclohexyl]-1-piperazinyl}-5-fluoroquinoline], for which the melting point was 162 to 164 °C. In addition, on Human 5-HT Transporter, the Ki was 220 nM.

Compound `Fc1cc(N2CCN([C@H]3CC[C@H](c4coc5ccccc54)CC3)CC2)c2ncccc2c1` [Compound 56, 8-{4-[4-trans(1-benzofuran-3-yl)cyclohexyl]-1-piperazinyl}-6-fluoroquinoline] gave a melting point of 195 to 197 °C. This compound returned an inhibition constant Ki on Human 5-HT Transporter of 337 nM.

Compound `COc1cccc2c1occ2[C@H]1CC[C@@H](N2CCN(c3ccc(F)c4cccnc34)CC2)CC1` [Compound 57, 5-fluoro-8-{4-[4-cis(7-methoxy-1-benzofuran-3-yl)cyclohexyl]-1-piperazinyl}quinoline] came in with a melting point of 143 to 146 °C. The compound also showed a Ki on Human 5-HT Transporter of 3040 nM.

The compound `COc1cccc2c1occ2[C@H]1CC[C@@H](N2CCN(c3cc(F)cc4cccnc34)CC2)CC1` [Compound 59, 6-fluoro-8-{4-[4-cis(7-methoxy-1-benzofuran-3-yl)cyclohexyl]-1-piperazinyl}quinoline] had a melting point of 75 to 83 °C. Moreover, the inhibition constant (Ki) at Human 5-HT Transporter turned out to be 455 nM.

As to `COc1cccc2c1occ2[C@H]1CC[C@H](N2CCN(c3cc(F)cc4cccnc34)CC2)CC1` [Compound 60, 6-fluoro-8-{4-[4-trans(7-methoxy-1-benzofuran-3-yl)cyclohexyl]-1-piperazinyl}quinoline], the melting point is 195 to 197 °C. The same compound registered a Ki at Human 5-HT Transporter of 212 nM.

Consider `COc1cccc2c1occ2[C@H]1CC[C@@H](N2CCN(c3cccc4cccnc34)CC2)CC1` [Compound 61, 8-{4-[4-cis(7-methoxy-1-benzofuran-3-yl)cyclohexyl]-1-piperazinyl}quinoline], for which the melting point was in the range of 66 to 67 °C. Also, the inhibitory constant (Ki) at Human 5-HT Transporter amounted to 96.8 nM.

Regarding `COc1cccc2c1occ2[C@H]1CC[C@H](N2CCN(c3cccc4cccnc34)CC2)CC1` [Compound 62, 8-{4-[4-trans(7-methoxy-1-benzofuran-3-yl)cyclohexyl]-1-piperazinyl}quinoline], the melting point is 195 to 197 °C. Further, at Human 5-HT Transporter, the Ki was 38 nM.

As for `COc1ccc2occ([C@H]3CC[C@@H](N4CCN(c5cc(F)cc6cccnc56)CC4)CC3)c2c1` [Compound 67, 6-fluoro-8-{4-[4-cis(5-methoxy-1-benzofuran-3-yl)cyclohexyl]piperazin-1-yl}quinoline], the melting point was 153 to 160 °C. The compound further had a Ki on Human 5-HT Transporter of 1200 nM.

`COc1ccc2occ([C@H]3CC[C@H](N4CCN(c5cc(F)cc6cccnc56)CC4)CC3)c2c1` [Compound 68, 6-fluoro-8-{4-[4-trans(5-methoxy-1-benzofuran-3-yl)cyclohexyl]piperazin-1-yl}quinoline]: the melting point was 152 to 155 °C. On Human 5-HT Transporter, the inhibitory constant (Ki) was 3290 nM.

`Fc1cc(N2CCN(C3CCC(c4cc5ccccc5o4)CC3)CC2)c2ncccc2c1` (centres unmarked) [Compound 69, 8-[4-(4-benzofuran-2-yl-yclohexyl)-piperazin-1-yl]-6-fluoro-quinoline] had a melting point of 91 to 93 °C.

Compound `COc1cc(N2CCN([C@H]3CC[C@@H](c4cc5ccccc5s4)CC3)CC2)c2ncccc2c1` [Compound 70] came in with a melting point of 184 to 186 °C. At Human 5-HT Transporter, the Ki was 3000 nM.

`COc1cc(N2CCN([C@H]3CC[C@H](c4cc5ccccc5s4)CC3)CC2)c2ncccc2c1` [Compound 71]: the melting point lay in the range of 193 to 194 °C.
